System: Aβ 40 in conditioned media of cells stably expressing Amyloid Precursor Protein (APP)
Assay: BACE Cell-Based Assay (Aβ40 in conditioned medium, sandwich ELISA)
Conditions: 24 hours of incubation with the test compounds, Aβ 40 by sandwich ELISA, read-out: IC50 values in the cell-based assay (inhibition of Aβ 40)
Method: The cell-based assay measures inhibition or reduction of Aβ40 in conditioned medium of test compound treated cells, which express amyloid precursor protein.
Cells stably expressing Amyloid Precursor Protein (APP) were plated at a density of 40K cells/well in 96 well plates (Costar). The cells were cultivated for 24 h at 37° C. and 5% CO2 in DMEM supplemented with 10% FBS. The test compounds were then added to cells in 10-point dose response concentrations with the starting concentration being either 100 μM or 10 μM. The compounds were diluted from stock solutions in DMSO and the final DMSO concentration of the test compounds on cells was 0.1%. After 24 hours of incubation with the test compounds the supernatant conditioned media was collected and the Aβ 40 levels were determined using a sandwich ELISA. The IC50 of the compound was calculated from the percent of control or percent inhibition of Aβ 40 as a function of the concentration of the test compound.
The sandwich ELISA to detect Aβ 40 was performed in 96 well microtiter plates, which were pre-treated with goat anti-rabbit IgG (Pierce). The capture and detecting antibody pair that were used to detect Aβ 40 from cell supernatants were affinity purified pAb40 (Biosource) and biotinylated 6E10 (Signet Labs Inc.), respectively. The optimal concentration for the pAb40 antibody was 3 μg/ml in Superblock/TBS (Pierce) that was supplemented with 0.05% Tween 20 (Sigma). Optimal concentration for the detection antibody 6E10-biotinylated was […] in Superblock/TBS (Pierce) that had been supplemented with 2% normal goat serum and 2% normal mouse serum.
Cellular supernatants were incubated with the capture antibody for 3 h at 4° C., followed by 3 wash steps in TBS-tween (0.05%). The detecting antibody incubation was for 2 h at 4° C., again followed by the wash steps as described previously. The final readout of the ELISA is Time-Resolved Fluorescence (counts per minute) using Delfia reagents Streptavidin-Europium and Enhancement solutions (Perkin Elmer) and the Victor 2 multilabel counter (Perkin Elmer).

Row | IC50 [µM] | SMILES
1 | ≤ 5 | CCc1ccc2c(c1)[C@@H](NC[C@@H](O)[C@H](Cc1ccccc1)NC(=O)c1ccc(=O)n(C3CCCC3)n1)CC1(CCC1)O2 [Example 151, 1-cyclopentyl-N-((2S,3R)-4-((S)-6-ethyl-2,2-spirocyclo-butylchroman-4-ylamino)-3-hydroxy-1-phenylbutan-2-yl)-6-oxo-1,6-dihydropyridazine-3-carboxamide]
2 | ≤ 5 | CCc1ccc2c(c1)[C@@H](NC[C@@H](O)[C@H](Cc1ccccc1)NC(=O)c1ccc(=O)n(CC(F)(F)F)c1)CC1(CCC1)O2 [Example 119]
3 | ≤ 5 | CCc1ccc2c(c1)C(NC[C@@H](O)[C@H](Cc1ccccc1)NC(=O)c1cc(-c3cccnc3)c(=O)n(C3CCCC3)c1)CC1(CCCC1)O2 (stereo partly drawn) [Example 14, 1-cyclopentyl-N-((2S,3R)-4-(6-ethyl-2,2-spirocyclopentylchroman-4-ylamino)-3-hydrodroxy-1-phenylbutan-2-yl)-6-OXO-5-(pyridine-3-yl)-1,6-dihydropyridine-3-carboxamide]
4 | ≤ 5 | CCc1ccc2c(c1)[C@@H](NC[C@@H](O)[C@H](Cc1ccccc1)NC(=O)[C@H]1CN(C(=O)c3cccc(C)c3)CCO1)CC1(CCC1)O2 [Example 511, (2R)-N-((1S,2R)-3-(((4S)-6-ethyl-3,4-dihydrospiro[chromene-2,1′-cyclobutan]-4-yl)amino)-2-hydroxy-1-(phenylmethyl)propyl)-4-((3-methylphenyl)carbonyl)-2-morpholinecarboxamide]
5 | ≤ 5 | CCc1ccc2c(c1)C(NC[C@@H](O)[C@H](Cc1ccccc1)NC(=O)c1ccc(=O)n(C3CCCC3)c1)CC1(CCCC1)O2 (stereo partly drawn) [Example 2]
6 | ≤ 5 | CCc1ccc2c(c1)[C@@H](NC[C@@H](O)[C@H](Cc1ccccc1)NC(=O)C1Cc3ccccc3N(C)C1)CC1(CCCC1)O2 (stereo partly drawn) [Example 49, N-((2S,3R)-4-((S)-6-ethyl-2,2-spirocyclopentylchroman-4-ylamino)-3-hydroxy-1-phenylbutan-2-yl)-1-methyl-1,2,3,4-tetrahydroquinoline-3-carboxamide]
7 | ≤ 5 | CCc1ccc2c(c1)[C@@H](NC[C@@H](O)[C@H](Cc1ccccc1)NC(=O)c1ccc(=O)n(C3CCCCC3)c1)CC1(CCCCC1)O2 [Example 129, 1-cyclohexyl-N-((2S,3R)-4-((S)-6-ethyl-2,2-spirocyclohexyl-chroman-4-ylamino)-3-hydroxy-1-phenylbutan-2-yl)-6-oxo-1,6-dihydropyridine-3-carboxamide]
8 | ≤ 5 | CCc1ccc2c(c1)[C@@H](NC[C@@H](O)[C@H](Cc1ccccc1)NC(=O)c1cn(C3CCCC3)c(=O)c3ccccc13)CC1(CCC1)O2 [Example 162]
9 | ≤ 5 | CCc1ccc2c(c1)[C@@H](NC[C@@H](O)[C@H](Cc1ccccc1)NC(=O)c1ccc(=O)n(C3CCCCC3)c1)CC1(CCCC1)O2 [Example 160]
10 | ≤ 5 | CCc1ccc2c(c1)C(NC[C@@H](O)[C@H](Cc1ccccc1)NC(=O)c1cc(-c3ccncc3)c(=O)n(C3CCCC3)c1)CC1(CCCC1)O2 (stereo partly drawn) [Example 15, 1-cyclopentyl-N-((2S,3R)-4-(6-ethyl-2,2-spirocyclopentylchroman-4-ylamino)-3-hydrodroxy-1-phenylbutan-2-yl)-6-OXO-5-(pyridin-4-yl)-1,6-dihydropyridine-3-carboxamide]

More lines, now with the values behind:

Row | SMILES | IC50 [µM]
11 | O=C(N[C@@H](Cc1ccccc1)[C@H](O)CN[C@H]1CC2(CCCC2)Oc2ccccc21)c1cc(-c2ccccn2)c(=O)n(C2CCCC2)c1 [Example 150, 1-cyclopentyl-N-((2S,3R)-4-((S)-2,2-spirocyclopentylchroman-4-ylamino)-3-hydroxy-1-phenylbutan-2-yl)-6-oxo-5-(pyridin-2-yl)-1,6-dihydropyridine-3-carboxamide] | ≤ 5
12 | O=C(N[C@@H](Cc1ccccc1)[C@H](O)CN[C@H]1CC2(CCCC2)Oc2ccc(Br)cc21)c1ccc(=O)n(C2CCCC2)c1 [Example 122] | ≤ 5
13 | CC(C)(C)Cc1ccc2c(c1)[C@H](NC[C@@H](O)[C@H](Cc1ccccc1)NC(=O)c1cc(-c3ccccn3)c(=O)n(C3CCCC3)c1)CC(C)(C)N2 [Example 488, 1′-cyclopentyl-N-((1S,2R)-3-(((4R)-6-(2,2-dimethylpropyl)-2,2-dimethyl-1,2,3,4-tetrahydro-4-quinolinyl)amino)-2-hydroxy-1-(phenylmethyl)propyl)-2′-oxo-1′,2′-dihydro-2,3′-bipyridine-5′-carboxamide] | ≤ 5
14 | CC(C)(C)Cc1ccc2c(c1)[C@@H](NC[C@@H](O)[C@H](Cc1ccccc1)NC(=O)c1cc(N3CCCC3=O)c(=O)n(C3CCCC3)c1)CC1(CCCC1)O2 [Example 124] | ≤ 5
15 | O=C1CC[C@H](C(=O)N[C@@H](Cc2ccccc2)[C@H](O)CN[C@H]2CC3(CCC3)Oc3ccc(N4CCOCC4)cc32)O1 [Example 529, (2R)-N-((1S,2R)-2-hydroxy-3-(((4S)-6-(4-morpholinyl)-3,4-dihydrospiro[chromene-2,1′-cyclobutan]-4-yl)amino)-1-(phenylmethyl)propyl)-5-oxotetrahydro-2-furancarboxamide] | ≤ 5
16 | Cc1cccc(C(=O)N2CCO[C@@H](C(=O)N[C@@H](Cc3cc(F)cc(F)c3)[C@H](O)CN[C@H]3CC4(CCC4)Cc4ncc(C)cc43)C2)c1 [Example 493, (2R)-N-((1S,2R)-1-((3,5-difluorophenyl)methyl)-2-hydroxy-3-(((5′S)-3′-methyl-5′,8′-dihydro-6′H-spiro[cyclobutane-1,7′-quinolin]-5′-yl)amino)propyl)-4-((3-methylphenyl)carbonyl)-2-morpholinecarboxamide] | ≤ 5
17 | O=C(N[C@@H](Cc1ccc(F)cc1)[C@H](O)CN[C@H]1CC2(CCC2)Oc2cc(F)c(-n3cccn3)cc21)C1CC1 [Example 472, N-((1S,2R)-1-((4-fluorophenyl)methyl)-3-(((4S)-7-fluoro-6-(1H-pyrazol-1-yl)-3,4-dihydrospiro[chromene-2,1′-cyclobutan]-4-yl)amino)-2-hydroxypropyl)cyclopropanecarboxamide] | ≤ 5
18 | Cc1cnc2c(c1)[C@@H](NC[C@@H](O)[C@H](Cc1cc(F)cc(F)c1)NC(=O)[C@@H]1CCOC1)CC1(CCC1)C2 [Example 509, (3R)-N-((1S,2R)-1-((3,5-difluorophenyl)methyl)-2-hydroxy-3-(((5′S)-3′-methyl-5′,8′-dihydro-6′H-spiro[cyclobutane-1,7′-quinolin]-5′-yl)amino)propyl)tetrahydro-3-furancarboxamide] | ≤ 5
19 | Cc1cnc2c(c1)[C@@H](NC[C@@H](O)[C@H](Cc1ccccc1)NC(=O)C1CCOCC1)CC1(CCC1)C2 [Example 502, N-((1S,2R)-2-hydroxy-3-(((5′S)-3′-methyl-5′,8′-dihydro-6′H-spiro[cyclobutane-1,7′-quinolin]-5′-yl)amino)-1-(phenylmethyl)propyl)tetrahydro-2H-pyran-4-carboxamide] | ≤ 5
20 | C[C@@H](N[C@H]1CC(C)(C)Oc2ccc(Br)cc21)[C@H](O)[C@H](Cc1ccccc1)NC(=O)c1cc(-c2ccccn2)c(=O)n(C2CCCC2)c1 [Example 480, N-((1S,2S,3R)-3-(((4S)-6-bromo-2,2-dimethyl-3,4-dihydro-2H-chromen-4-yl)amino)-2-hydroxy-1-(phenylmethyl)butyl)-1′-cyclopentyl-2′-oxo-1′,2′-dihydro-2,3′-bipyridine-5′-carboxamide] | ≤ 5
21 | CCc1ccc2c(c1)[C@@H](NC[C@@H](O)[C@H](Cc1ccccc1)NC(=O)c1cc(N3CCCC3=O)c(=O)n(C3CCCC3)c1)CC1(CCCC1)O2 [Example 105] | ≤ 5
22 | COCCNc1ccc2c(c1)[C@@H](NC[C@@H](O)[C@@H](Cc1ccccc1)NC(=O)c1cc(-c3ccccn3)c(=O)n(C3CCCC3)c1)CC(C)(C)C2=O [Example 507, 1′-cyclopentyl-N-((1R,2R)-3-(((1S)-3,3-dimethyl-7-((2-(methyloxy)ethyl)amino)-4-oxo-1,2,3,4-tetrahydro-1-naphthalenyl)amino)-2-hydroxy-1-(phenylmethyl)propyl)-2′-oxo-1′,2′-dihydro-2,3′-bipyridine-5′-carboxamide] | ≤ 5
23 | O=C(N[C@@H](Cc1ccccc1)[C@H](O)CN[C@H]1CC2(CCCC2)Oc2c(F)cc(F)cc21)c1cc(N2CCCC2=O)c(=O)n(C2CCCC2)c1 [Example 111] | ≤ 5
24 | CCc1ccc2c(c1)[C@@H](NC[C@@H](O)[C@H](Cc1ccccc1)NC(=O)[C@@H]1CN(C(=O)N3CCO[C@@H](C)C3)CCO1)CC1(CCC1)O2 [Example 521, (2S)-N-((1S,2R)-3-(((4S)-6-ethyl-3,4-dihydrospiro[chromene-2,1′-cyclobutan]-4-yl)amino)-2-hydroxy-1-(phenylmethyl)propyl)-4-(((2S)-2-methyl-4-morpholinyl)carbonyl)-2-morpholinecarboxamide] | ≤ 5
